Results taken from patent publication US6413948B1, “Pharmaceutical compositions and methods of effecting a neuronal activity in an animal using naaladase inhibitors” (Guilford Pharmaceuticals Inc., priority 1996, dated 2002).

Experiments:
[1] = tested on: Sprague-Dawley rats, 2 hour transient middle cerebral artery occlusion (MCAO); assay: In vivo assay on brain injury following MCAO in Sprague-Dawley rats; details: 100 mg/kg IP then 20 mg/kg/hr IV for 4 hours
Description: In the control group (n=8), the rats received an IP injection of saline 30 minutes post-occlusion followed by IV saline infusion at a rate of 0.5 ml/hr. […] There was a 15 minute delay between IP and IV treatments for each rat. Twenty two hours following the reperfusion, the rats were euthanized and their brains were removed. Seven coronal sections (2 mm thick) were taken and stained with 1% solution of 2,3,5-triphenyltetraxolium chloride (TTC) for 20 minutes and then fixed in 10% formalin. The anterior and posterior surface of the most rostral brain section and the posterior surface of each of the other 6 sections were imaged. The quantification of infarct size of each brain was obtained using a computer aided-digital imaging analysis system (LOATS). The brain regions completely lacking TTC-staining were characterized as representative of infarcted tissue. The total infarct volume for each rat was calculated by numeric integration of the respective sequential brain areas.
Male Sprague-Dawley rats (260-320 g) were used. Prior to the experiment, the rats were individually housed and allowed free access to food and water. Each rat received two surgeries: jugular vein cannulation for IV infusion and MCAO. During surgeries, the rat was anesthetized with […] delivered in oxygen via an inhalation mask. The body temperature was monitored and regulated at normothermic level using a homeothermic heating system. First, a PE-50 polyethylene catheter was inserted into the right jugular vein. One hour later, the rat was reanesthetized for MCAO surgery. The MCAO was achieved using the endovascular suture method described by Long et al., Stroke, Vol. 20, pp. 84-91 (1989). Specifically, the right external carotid artery (ECA) was exposed, coagulated and transected. A 3-0 monofilament nylon suture with a blunted tip was introduced into the proximal stump of the ECA via an arteriotomy and advanced 20 mm from the carotid bifurcation until it lodged in the proximal region of the anterior cerebral artery, thereby occluding the origin of the MCA. The rats were allowed to wake up; 2 hours later, the rats were reanesthetized for reperfusion, during which the nylon suture was retracted to the stump of the ECA allowing blood recirculation to the MCA.

[2] = tested on: cortical cell cultures; assay: In vitro assay of NAALADase inhibitors on toxicity of NAAG; format: cell-based, rats; details: inhibitor 1 μM
Description: Dissociated cortical cell cultures are prepared using the papain-dissociation method of Heuttner and Baughman (1986) as modified by Murphy and Baraban (1990). See TABLE VII for the Dissociated Culture Protocol as used herein. Fetuses of embryonic day 17 are removed from timed pregnancy rats (Harlan Sprague Dawley). The cortex is rapidly dissected out in Dulbecco's phosphate-buffered saline, stripped of meninges, and incubated in a papain solution for 15 minutes at 37° C. The tissue is then mechanically triturated and pelleted at 500 g (1000-2000 rpm on swinging bucket Beckman). The pellet is resuspended in a DNAase solution, triturated with a 10 ml pipette ×15-20, layered over a “10×10” solution containing albumin and trypsin inhibitor (see TABLE VII for an example of a “10×10” solution), repelleted, and resuspended in a plating medium containing 10% fetal bovine serum (HyClone A-1111-L), 5% heat-inactivated Equine serum (HyClone A-3311-L), and […] modified Earle's basal medium (MEM) (Gibco 51200-020) with high glucose (4.5 g/L), and 1 g/L NaHCO3. Each 24-well plate is pretreated with poly-D-lysine (0.5 ml/well of 10 μg/ml) for 1 h and rinsed with water before plating. Cultures are plated at 2.5×10^6 cells/ml with each well of a 24 well plate receiving 500 μl/well. Alternatively, 35 mm dishes can be plated at 2 ml/dish, 6 well plates at 2 ml/well, or 12 well plates at 1 ml/well. After plating, 50% of the medium is changed every 3-4 days with growth serum containing 5% heat-inactivated Equine serum (HyClone A3111-L), 95% modified Earle's basal medium (MEM)(Gibco 51200-020), and 1% L-Glutamine (Gibco 25030-081). Experiments are performed after 21 days in cultures. Cultures are maintained in a 5% CO2 atmosphere at 37° C. These methodologies are described in further detail below in the TABLE VII.
At the end of exposure, the cells are washed once with HEPES buffered saline solution and then replaced with serum free modified Earle's basal medium. The cultures are then returned to the CO2 incubator for 24 hour recovery.
Release of the cytosolic enzyme lactate dehydrogenase (LDH), a standard measure of cell lysis, is used to quantify injury (Koh and Choi, 1987). LDH-activity measurements are normalized to control for variability between culture preparations (Koh and Choi, 1987). […] This control measurement is subtracted from each experimental point. […] Only main effects of NAALADase inhibitors are considered; interactions between dose and condition are not examined statistically.

[3] = tested on: stroke-induced rise in brain glutamate levels; assay: In vivo assay on stroke-induced rise in brain glutamate levels (microdialysis); design: species or system Sprague Dawley rats; details: rat
Description: Male Sprague Dawley rats (270-330 g, n=5-6 per group) were implanted with concentric microdialysis probes similar to previously described procedures (Britton et al., J. Neurochem., Vol. 67, pp. 324-329 (1996)). In brief, under halothane anaesthesia, probes (constructed in-house using Cuprophane capillary membrane; 10K mw cut off; 2 mm dialyzing length) were implanted into the frontal cortex (AP=+3.5; ML=3; DIV=3), caudate nucleus (AP=0; ML=3; DV=6.6), and parietal cortex (AP=−2; ML=5; DV=3) (coordinates in mm relative to bregma and dura, respectively), regions believed to represent core and penumbral areas of ischemia-induced injury. Glutamate levels in dialysate were determined using precolumn o-phthaldialdehyde derivatization, followed by HPLC with fluorometric detection.
Following a 60 minute stabilization period, dialysis samples were collected every 20 minutes. After collecting 3 baseline samples, the rats were anaesthetized with halothane and subjected to temporary ischemia using the filament method of MCAO (Britton et al., Life Sciences, Vol. 60, No. 20, pp. 1729-1740 (1997)). In brief, the right external carotid artery (ECA) was exposed and its branches coagulated. A 3-0 monofilament nylon suture was introduced into the internal carotid artery via an arteriotomy in the ECA and advanced until it lodged in the proximal region of the anterior cerebral artery, thus occluding the origin of the MCA. The endovascular suture was retracted to allow reperfusion 2 hours after occlusion.
Body temperature was maintained normothermic throughout stroke surgery and reperfusion procedures. […] Dialysis samples were collected every 20 minutes from unanesthetized rats.

[4] = tested on: cortical cell cultures; assay: In vitro assay of NAALADase inhibitors on ischemia (potassium cyanide and 2-deoxyglucose, LDH release); format: cell-based, rats
Description: The methods for this assay are described in detail below.
Dissociated cortical cell cultures are prepared using the papain-dissociation method of Heuttner and Baughman (1986) as modified by Murphy and Baraban (1990). […] Fetuses of embryonic day 17 are removed from timed pregnancy rats (Harlan Sprague Dawley). The cortex is rapidly dissected out in Dulbecco's phosphate-buffered saline, stripped of meninges, and incubated in a papain solution for 15 minutes at 37° C. The tissue is then mechanically triturated and pelleted at 500 g (1000-2000 rpm on swinging bucket Beckman). The pellet is resuspended in a DNAase solution, triturated with a 10 ml pipette ×15-20, layered over a “10×10” solution containing albumin and trypsin inhibitor (see TABLE VII for an example of a “10×10” solution), repelleted, and resuspended in a plating medium containing 10% fetal bovine serum (HyClone A-1111-L), 5% heat-inactivated Equine serum (HyClone A-3311-L), and 84% modified Earle's basal medium (MEM) (Gibco 51200-020) with high glucose (4.5 g/L), and 1 g/L NaHCO3. Each 24-well plate is pretreated with poly-D-lysine (0.5 ml/well of 10 μg/ml) for 1 h and rinsed with water before plating. Cultures are plated at 2.5×10^6 cells/ml with each well of a 24 well plate receiving 500 μl/well. Alternatively, 35 mm dishes can be plated at 2 ml/dish, 6 well plates at 2 ml/well, or 12 well plates at 1 ml/well. After plating, 50% of the medium is changed every 3-4 days with growth serum containing 5% heat-inactivated Equine serum (HyClone A3111-L), 95% modified Earle's basal medium (MEM)(Gibco 51200-020), and 1% L-Glutamine (Gibco 25030-081). Experiments are performed after 21 days in cultures. Cultures are maintained in a 5% CO2 atmosphere at 37° C.
Twenty-one to twenty-four days following the initial cortical cell plating, the experiment is performed. The cultures are washed three times in HEPES buffered saline solution containing no phosphate. […] At the end of 24 hours, the cultures are analyzed for release of the cytosolic enzyme lactate dehydrogenase (LDH), a standard measure of cell lysis. LDH measurements are performed according to the method of Koh and Choi, J. Neuroscience Methods (1987).

O=C(O)CCC(CP(=O)(O)O)C(=O)O (stereo not shown) [2-(phosphonomethyl)pentanedioic acid]
mean total brain infarct volume ([1]; 20 minute pre-treatment): 122±26 mm^3
mean total brain infarct volume ([1]; 30 minute post-treatment): 208±40 mm^3
mean total brain infarct volume ([1]; 60 minute post-treatment): 125±57 mm^3
mean total brain infarct volume ([1]; 120 minute post-treatment): 133±35 mm^3
% Toxicity ([2]; NAAG 3 μM): −4.71 (n = 1) %
% Toxicity ([2]; NAAG 10 μM): −3.08 ± 0.81 (n = 3) %
% Toxicity ([2]; NAAG 30 μM): −4.81 ± 1.13 (n = 3) %
% Toxicity ([2]; NAAG 100 μM): −2.87 ± 0.78 (n = 3) %
% Toxicity ([2]; NAAG 300 μM): −2.09 ± 0.48 (n = 3) %
% Toxicity ([2]; NAAG 1 mM): 0.26 ± 1.11 (n = 3) %
% Toxicity ([2]; NAAG 3 mM): 16.83 ± 8.76 (n = 3) %
concurrent glutamate changes in the parietal cortex [3]: completely prevented
glutamate in the frontal cortex [3]: no subsequent difference
stroke-induced extracellular glutamate increases in the striatum [3]: significantly attenuated
% Toxicity ([4]; ischemic insult, 100 pM): 66.57 ± 4.38 (n = 5) %
% Toxicity ([4]; ischemic insult, 1 nM): 42.31 ± 9.34 (n = 5) %
% Toxicity ([4]; ischemic insult, 10 nM): 33.08 ± 9.62 (n = 5) %
% Toxicity ([4]; ischemic insult, 100 nM): 30.23 ± 9.43 (n = 5) %
% Toxicity ([4]; ischemic insult, 1 μM): 8.56 ± 8.22 (n = 5) %
% Toxicity ([4]; time of administration: Delayed 30 Minutes): 31.49%
% Toxicity ([4]; time of administration: Exposure & Recovery): 2.54%
% Toxicity ([4]; time of administration: Recovery Only): 9.03%
